Laboratory results published in patent US10711249B2, “Method for inducing hepatocytes” (KYOTO UNIVERSITY, priority 2014, dated 2020).
Counter-ions that a name gives are not always drawn. Values belong to the compound of their own block, whether it stands above or below them.

What was measured:
[1] = test system: CYP1A1; test: Drug metabolizing enzyme induction reaction: CYP1A1 mRNA by quantitative PCR; type: in vitro ADME, human; details: 100 μM omeprazole, 2 days
[2] = test system: hepatoblasts induced from human iPS cells; test: Albumin secreted into the culture medium measured by ELISA; type: cell-based; details: 1 μM in Stage 3, 8 days
[3] = test system: hepatoblasts induced from human iPS cells 201B6; test: Induction of albumin-positive cells in Stage 3 (anti-albumin immunostaining, albumin mRNA by quantitative PCR); type: cell-based
Method: The effects of analogous compounds (adrenergic receptor agonist, in particular, an agent having α receptor stimulating action) serving as an alternative compound for a methoxamine hydrochloride were checked. In Stage 3 as mentioned above, cells were cultured in a Hepatocyte Culture Medium (HCM SingleQuots Kit) supplemented with 1 μM etilefrine, phenylephrine or methoxamine hydrochloride for 8 days. The content ratio of albumin-positive cells and the mRNA expression level of albumin were measured in the same manner as above. […] Furthermore, the amount of albumin secreted from the obtained cell population into the culture mediumliquid was measured by ELISA.

[4] = test system: CYP3A4; test: CYP3A4 expression in induced cells (immunostaining and quantitative PCR)
Method: A cell population obtained by culturing the cells obtained in Stage 2 in a Hepatocyte Culture Medium (HCM SingleQuots Kit) containing 20 ng/ml HGF and 20 ng/ml oncostatin M (HGF+OsM) for 8 days; a cell population obtained by culturing the cells obtained in Stage 2 in a Hepatocyte Culture Medium (HCM SingleQuots Kit) supplemented with 1 μM methoxamine hydrochloride for 8 days; a cell population obtained by culturing the cells obtained in Stage 2 in a Hepatocyte Culture Medium (HCM SingleQuots Kit) supplemented with 1 μM pregnenolone for 8 days; and a cell population obtained by culturing the cells obtained in Stage 2 in a Hepatocyte Culture Medium (HCM SingleQuots Kit) supplemented with DMSO for 8 days were immuno-stained with a CYP3A4 antibody (Proteintech Group) (FIG. 9A). […] CYP3A4mRNA expression levels were measured in these cell populations by quantitative PCR in the same manner as above.

[5] = test system: Mouse ES cells (D3 cell line); test: Induction of hepatocytes from mouse ES cells: expression of Tat, Cyp3a11, Cyp3a13; details: 1 μM in Stage 3, 8 days; compared with HGF+OsM
[6] = test system: cells obtained in Stage 2 (from human iPS cells); test: ICG (indocyanine green) uptake by induced cells; type: cell-based; details: agent in Stage 3 for 8 days (methoxamine hydrochloride 1 μM; HGF and oncostatin M 20 ng/ml each); 1 mg/ml ICG, 1 hour
Method: (§1) 1 mg/ml ICG (indocyanine green) (Sigma) was added to each cell population and cultured for 1 hour. Then, ICG uptake by the cells was observed.

[7] = test system: cells obtained in Stage 2 (from human iPS cells); test: Oil Red staining of induced cells; type: cell-based; details: agent in Stage 3 for 8 days
Method: as §1
The cells induced in the presence of HGF+OsM, methoxamine hydrochloride or DMSO and HepG2 were stained with Oil Red.

[8] = test system: cells obtained in Stage 2 (from human iPS cells); test: PAS staining of induced cells (glycogen accumulation); type: cell-based; details: agent in Stage 3 for 8 days
Method: as §1
The cells induced in the presence of HGF+OsM, methoxamine hydrochloride or DMSO, and HepG2 were stained with PAS.

[9] = test system: hepatocytes induced from human iPS cells; test: Gene expression profile by RNA sequencing analysis (PCA, liver marker heat map); type: cell-based
Description: The hepatocytes induced from human iPS cells were subjected to RNA sequencing analysis and gene expression profiles were compared.

[10] = test system: Mouse ES cells (D3 cell line); test: Mouse ES cell-derived cells immunostained with anti-albumin, anti-Cyp3a4 and anti-C/ebpβ antibodies; type: cell-based; details: Stage 3, 8 days; compared with HGF+OsM
Method: The content ratio of Sox17-positive cells was determined.
The content ratio of AFP-positive cells was determined.
The cells were cultured for 8 days.
The cells cultured in the medium containing methoxamine in Stage 3 for 8 days, the cells cultured in the medium containing HGF+OsM (positive control) in the same manner as above and also the cells cultured in the medium containing DMSO (negative control) were used. These cells were immuno-stained with an anti-albumin antibody (Albumin), anti-Cyp3a4 antibody and anti-C/ebpβ antibody.

[11] = test system: adrenergic α1 receptor; test: Mechanism study: albumin secretion with adrenergic receptor blocking agents added with methoxamine in Stage 3; type: cell-based, human; details: 10 μM blocking agent added with methoxamine in Stage 3, 8 days

- CYP1A1 mRNA expression level ([1]; HepG2 cells): expression of CYP1A1 was induced
- CYP1A1 mRNA expression level ([1]; cell population induced with 1 μM methoxamine hydrochloride in Stage 3): expression of CYP1A1 was induced
- CYP1A1 mRNA expression level ([1]; cell population induced with HGF+OsM in Stage 3): expression of CYP1A1 was induced
SMILES: COc1ccc2[nH]c([S+]([O-])Cc3ncc(C)c(OC)c3C)nc2c1 (centres unmarked) [omeprazole]

- immunostaining for Albumin, Cyp3a4 and C/ebpβ [10]: very similar expression was observed
SMILES: COc1ccc(OC)c(C(O)C(C)N)c1 (centres unmarked) [methoxamine hydrochloride]
- concentration at which albumin-expressing cells were obtained (albumin mRNA, quantitative PCR) ([3]; Stage 3, 8 days, tested 0 M, 1 fM, 1 pM, 1 nM, 1 μM, 50 μM, 100 μM): ≥ 1 fM
- amount of albumin secreted into the culture medium (ELISA) [2]: cells having an ability to secrete albumin can be induced
- ICG uptake by the induced cells [6]: ICG uptake was observed
- Oil Red staining (lipid drops) of the induced cells [7]: accumulation of lipid drops was observed in some of the cells
- PAS staining (glycogen) of the induced cells [8]: stained red-purple
- gene expression profile compared with hepatocytes induced by HGF and OsM [9]: substantially the same gene expression profile

- volume of albumin secretion [11]: decreased
SMILES: COc1cc2nc(N3CCN(C(=O)C4COc5ccccc5O4)CC3)nc(N)c2cc1OC (centres unmarked) [doxazosin]

Second part, the compound before the results:

SMILES: CNC[C@H](O)c1cccc(O)c1 [phenylephrine]
- amount of albumin secreted into the culture medium (ELISA) [2]: cells having an ability to secrete albumin can be induced

SMILES: CCNCC(O)c1cccc(O)c1 (centres unmarked) [etilefrine]
- amount of albumin secreted into the culture medium (ELISA) [2]: cells having an ability to secrete albumin can be induced

SMILES: CC(=O)[C@H]1CC[C@H]2[C@@H]3CC=C4C[C@@H](O)CC[C@]4(C)[C@H]3CC[C@]12C [pregnenolone]
- induction of albumin-positive cells at two concentrations ([3]; pregnenolone 150 nM and 1 μM in Stage 3): the same results were obtained
- CYP3A4 immunostaining of the induced cells ([4]; agent in Stage 3 for 8 days (1 μM; HGF and oncostatin M 20 ng/ml each)): Cells expressing CYP3A4 were found
- CYP3A4 mRNA expression level (quantitative PCR) ([4]; agent in Stage 3 for 8 days, relative to cells induced with DMSO): intensively expressed
- expression of Tat, Cyp3a11 and Cyp3a13 [5]: express the same drug metabolizing enzymes as in the case where HGF+OsM was used
